Measurements published in patent publication US12503438B2, “Compounds for the treatment of kinase-dependent disorders” (Exelixis, Inc., priority 2019, dated 2025).

What was measured:
Met = Met (Homo sapiens, UniProt P08581); assay: Met autophosphorylation ELISA in PC-3 cells; format: cell-based; parameters: endogenous in cells; host or cells: PC-3 prostate cancer cells (ATCC #CRL-1435); settings: cellular activity, HGF-stimulated, phospho-Met ELISA, read-out: c-Met IC50
Description: PC-3 prostate cancer cells (ATCC #CRL-1435) were seeded at 4×10^4 cells/well onto 24-well plates (Greiner #662165), in DMEM (Thermo Fisher #11995-040) containing 10% FBS (Thermo Fisher #26140-079), 1% MEM NEAA (Thermo Fisher #11140-050), 1% GlutaMax (Thermo Fisher #35050-061), and 1% Penicillin Streptomycin (Thermo Fisher #15140-122). PC-3 cells were incubated at 37° C., 5% CO2 for 24 h and then starved for 3 h in serum-free medium. Test compounds were serially diluted to produce an 8-point dose curve in fresh serum-free medium to a final concentration of 0.3% DMSO (vehicle) and added to the cells and incubated for 1 h. Cells were then stimulated with 100 ng/mL recombinant human HGF (R&D Systems #294-HG-250) for 10 min, washed with cold PBS and immediately lysed with 130 μL of cold 1× lysis buffer [20 mM Tris, 137 mM sodium chloride, 2 mM EDTA, 10% glycerol, 1% NP-40 alternative, 1 mM activated sodium orthovanadate, 1 mM PefaBloc SC (Sigma-Aldrich #11429868001), protease/phosphatase inhibitor tablet (Thermo Fisher #A32959)]. Lysates were clarified by centrifugation and 100 μL/well added into the PathScan phospho-Met (panTyr) Sandwich ELISA (Cell Signaling Technology #7333). Assay was performed according to manufacturer's instructions. Positive control wells (100% activity) contained HGF-stimulated, DMSO-treated cell lysates. Negative control wells (0% activity) contained HGF-stimulated, reference inhibitor-treated cell lysates. IC50 values were calculated by nonlinear regression analysis using a 4-parameter logistic curve fit in ActivityBase XE (IDBS).

Mer = biological target: T1, Mer (Homo sapiens, UniProt Q12866); assay: Mer autophosphorylation ELISA in transient transfected 293A cells; format: cell-based; settings: cellular activity; MERTK-transfected 293A cells, phospho-Mer ELISA
T1 construct: host or cells: 293A cells (Thermo Fisher #R70507)
T1 sequence (Q12866 21-999): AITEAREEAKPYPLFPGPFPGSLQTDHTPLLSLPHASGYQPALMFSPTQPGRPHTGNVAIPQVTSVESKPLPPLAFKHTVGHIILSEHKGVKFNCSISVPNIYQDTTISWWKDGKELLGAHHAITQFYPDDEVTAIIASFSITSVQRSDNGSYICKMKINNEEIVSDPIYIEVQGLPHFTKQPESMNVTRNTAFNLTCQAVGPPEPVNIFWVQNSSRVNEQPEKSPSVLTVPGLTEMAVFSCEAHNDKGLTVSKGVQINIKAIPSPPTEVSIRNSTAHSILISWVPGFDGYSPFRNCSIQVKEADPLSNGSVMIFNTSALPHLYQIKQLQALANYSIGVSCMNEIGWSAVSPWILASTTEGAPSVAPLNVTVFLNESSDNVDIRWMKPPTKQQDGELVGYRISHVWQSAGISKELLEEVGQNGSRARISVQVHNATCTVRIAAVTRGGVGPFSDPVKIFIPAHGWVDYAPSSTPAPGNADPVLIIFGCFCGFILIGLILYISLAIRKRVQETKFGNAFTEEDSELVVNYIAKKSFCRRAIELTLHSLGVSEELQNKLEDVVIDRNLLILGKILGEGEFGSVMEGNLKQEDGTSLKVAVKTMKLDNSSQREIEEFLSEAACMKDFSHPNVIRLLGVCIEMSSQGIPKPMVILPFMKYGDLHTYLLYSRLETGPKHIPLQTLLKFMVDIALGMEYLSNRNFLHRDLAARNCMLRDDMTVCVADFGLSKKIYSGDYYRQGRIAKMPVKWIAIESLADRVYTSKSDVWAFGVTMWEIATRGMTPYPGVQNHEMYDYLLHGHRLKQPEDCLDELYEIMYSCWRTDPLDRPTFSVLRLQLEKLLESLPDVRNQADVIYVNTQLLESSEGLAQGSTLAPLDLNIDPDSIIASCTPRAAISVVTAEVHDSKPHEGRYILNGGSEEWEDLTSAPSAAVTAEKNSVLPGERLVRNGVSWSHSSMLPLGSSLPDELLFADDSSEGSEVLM
Description: 293A cells (Thermo Fisher #R70507) were seeded at 1.5×10^6 cells/well onto 100 mm dish (Greiner #664169), in DMEM (Thermo Fisher #11995-040) containing 10% FBS (Thermo Fisher #26140-079), 1% MEM NEAA (Thermo Fisher #11140-050), 1% GlutaMax (Thermo Fisher #35050-061), and 1% Penicillin Streptomycin (Thermo Fisher #15140-122). 293A cells were incubated at 37° C., 5% CO2 for 24 h and then transfected with 6 μg MERTK DNA (Genecopoeia #EX-Z8208-M02) using TransIT LT1 transfection reagent (Mirus-Bio #MIR2305). After 24 h incubation, the transfected 293A cells were seeded at 1×10^5 cells/well onto 96-well plates (Corning #3904) in DMEM growth medium overnight. Test compounds were serially diluted to produce an 8-point dose curve in fresh serum-free medium to a final concentration of 0.3% DMSO (vehicle) and added to the cells and incubated for 1 h. Cells were then immediately lysed with 150 μL of cold 1× lysis buffer [20 mM Tris, 137 mM sodium chloride, 2 mM EDTA, 10% glycerol, 1% NP-40 alternative, 1 mM activated sodium orthovanadate, 1 mM PefaBloc SC (Sigma-Aldrich #11429868001), protease/phosphatase inhibitor tablet (Thermo Fisher #A32959)]. Lysates were clarified by centrifugation and 50 μL/well added into the human phospho-Mer DuoSet IC ELISA (R&D Systems #DYC2579-2). Assay was performed according to manufacturer's instructions and sample phospho-Mer concentrations were extrapolated using human phospho-Mer control (R&D Systems #841793) as a standard. Positive control wells (100% activity) contained DMSO-treated cell lysates. Negative control wells (0% activity) contained reference inhibitor-treated cell lysates. IC50 values were calculated by nonlinear regression analysis using a 4-parameter logistic curve fit in ActivityBase XE (IDBS).

Met, sequence (P08581 25-1390): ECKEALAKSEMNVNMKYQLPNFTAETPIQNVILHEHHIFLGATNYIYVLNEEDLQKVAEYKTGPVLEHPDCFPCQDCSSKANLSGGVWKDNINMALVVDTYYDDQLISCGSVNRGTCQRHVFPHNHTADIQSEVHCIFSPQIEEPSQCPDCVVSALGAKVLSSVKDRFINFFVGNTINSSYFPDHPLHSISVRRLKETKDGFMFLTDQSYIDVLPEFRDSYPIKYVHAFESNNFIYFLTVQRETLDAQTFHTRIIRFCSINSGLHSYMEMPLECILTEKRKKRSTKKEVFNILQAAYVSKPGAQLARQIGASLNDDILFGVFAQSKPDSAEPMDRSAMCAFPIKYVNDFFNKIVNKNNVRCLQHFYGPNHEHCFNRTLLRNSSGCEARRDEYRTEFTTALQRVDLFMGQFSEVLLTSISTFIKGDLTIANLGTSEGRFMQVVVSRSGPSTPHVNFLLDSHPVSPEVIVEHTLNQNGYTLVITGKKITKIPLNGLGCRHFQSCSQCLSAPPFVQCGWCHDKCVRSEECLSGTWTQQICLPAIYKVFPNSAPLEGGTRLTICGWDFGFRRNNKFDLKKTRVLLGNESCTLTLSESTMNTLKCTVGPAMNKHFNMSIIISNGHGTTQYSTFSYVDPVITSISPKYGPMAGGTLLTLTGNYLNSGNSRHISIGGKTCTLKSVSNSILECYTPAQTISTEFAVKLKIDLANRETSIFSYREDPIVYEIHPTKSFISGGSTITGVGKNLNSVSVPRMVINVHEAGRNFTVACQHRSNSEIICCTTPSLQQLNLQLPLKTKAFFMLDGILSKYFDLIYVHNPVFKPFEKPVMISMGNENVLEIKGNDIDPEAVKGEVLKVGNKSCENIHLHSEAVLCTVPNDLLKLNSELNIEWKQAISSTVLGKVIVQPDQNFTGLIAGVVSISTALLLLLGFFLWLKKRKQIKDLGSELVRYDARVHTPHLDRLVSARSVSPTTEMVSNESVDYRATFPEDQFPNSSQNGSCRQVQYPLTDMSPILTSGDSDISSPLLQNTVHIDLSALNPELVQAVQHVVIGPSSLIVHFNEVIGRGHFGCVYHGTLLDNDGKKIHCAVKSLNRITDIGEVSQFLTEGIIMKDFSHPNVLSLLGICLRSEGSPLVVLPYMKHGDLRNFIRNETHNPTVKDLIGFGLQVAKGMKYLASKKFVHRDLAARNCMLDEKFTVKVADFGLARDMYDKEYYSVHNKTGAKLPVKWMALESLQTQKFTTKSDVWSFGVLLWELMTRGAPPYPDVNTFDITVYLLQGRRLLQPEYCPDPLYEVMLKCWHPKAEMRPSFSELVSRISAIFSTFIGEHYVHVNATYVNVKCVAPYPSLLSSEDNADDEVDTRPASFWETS

Row | Compound | IC50 (Met) | IC50 (Mer)
1 | O=C(Nc1ccc(F)cc1)C1(C(=O)Nc2ccc(Oc3ccnc4cc(-c5cnoc5)ccc34)cc2)CC1 [Compound 57, 1-N′-(4-Fluorophenyl)-1-N-[4-[7-(1,2-oxazol-4-yl)quinolin-4-yl]oxyphenyl]cyclopropane-1,1-dicarboxamide] | 10 to 100 nM | 10 to 100 nM
2 | Cn1ccc(-c2ccc3c(Oc4ccc(NC(=O)C5(C(=O)Nc6ccc(F)cc6)CC5)cc4)ccnc3c2)n1 [Compound 17, 1-N′-(4-Fluorophenyl)-1-N-[4-[7-(1-methylpyrazol-3-yl)quinolin-4-yl]oxyphenyl]cyclopropane-1,1-dicarboxamide] | 10 to 100 nM | 10 to 100 nM
3 | O=C(Nc1ccc(F)cc1)C1(C(=O)Nc2ccc(Oc3ccnc4cc(-c5cccnc5)ccc34)c(F)c2)CC1 [Compound 113, 1-N-(4-Fluorophenyl)-1-N′-[3-fluoro-4-(7-pyridin-3-ylquinolin-4-yl)oxyphenyl]cyclopropane-1,1-dicarboxamide] | 10 to 100 nM | 10 to 100 nM
4 | O=C(Nc1ccc(F)cc1)C1(C(=O)Nc2ccc(Oc3ccnc4cc(-c5cncc(F)c5)ccc34)cc2)CC1 [Compound 45, 1-N′-(4-Fluorophenyl)-1-N-[4-[7-(5-fluoropyridin-3-yl)quinolin-4-yl]oxyphenyl]cyclopropane-1,1-dicarboxamide] | 100 to 300 nM | 10 to 100 nM
5 | Cc1cc2c(Oc3ccc(NC(=O)C4(C(=O)Nc5ccc(F)cc5)CC4)cc3F)ccnc2cc1-c1ncc[nH]1 [Compound 122, 1-N′-[3-Fluoro-4-[7-(1H-imidazol-2-yl)-6-methylquinolin-4-yl]oxyphenyl]-1-N-(4-fluorophenyl)cyclopropane-1,1-dicarboxamide] | 10 to 100 nM | 10 to 100 nM
6 | O=C(Nc1ccc(F)cc1)C1(C(=O)Nc2ccc(Oc3ccnc4cc(-c5cccnc5)ccc34)cc2)CC1 [Compound 25, 1-N′-(4-Fluorophenyl)-1-N-[4-(7-pyridin-3-ylquinolin-4-yl)oxyphenyl]cyclopropane-1,1-dicarboxamide] | 10 to 100 nM | 10 to 100 nM
7 | Cc1cc2c(Oc3ccc(NC(=O)C4(C(=O)Nc5ccc(F)cc5)CC4)cc3)ccnc2cc1-c1cnn(C)c1 [Compound 78, 1-N′-(4-Fluorophenyl)-1-N-[4-[6-methyl-7-(1-methylpyrazol-4-yl)quinolin-4-yl]oxyphenyl]cyclopropane-1,1-dicarboxamide] | ≤ 10 nM | 10 to 100 nM
8 | CN1CCN(c2cc(-c3ccc4c(Oc5ccc(NC(=O)C6(C(=O)Nc7ccc(F)cc7)CC6)cc5)ccnc4c3)ccn2)CC1 [Compound 111, 1-N′-(4-Fluorophenyl)-1-N-[4-[7-[2-(4-methylpiperazin-1-yl)pyridin-4-yl]quinolin-4-yl]oxyphenyl]cyclopropane-1,1-dicarboxamide] | 100 to 300 nM | 10 to 100 nM
9 | CNC(=O)c1cc2c(Oc3ccc(NC(=O)C4(C(=O)Nc5ccc(F)cc5)CC4)cc3)ccnc2cc1-c1cnn(C)c1 [Compound 77, 1-N′-(4-Fluorophenyl)-1-N-[4-[6-(methylcarbamoyl)-7-(1-methylpyrazol-4-yl)quinolin-4-yl]oxyphenyl]cyclopropane-1,1-dicarboxamide] | 10 to 100 nM | 10 to 100 nM
10 | Cc1cc(F)cc(C)c1NC(=O)C1(C(=O)Nc2ccc(Oc3ccnc4cc(-c5cnn(C)c5)ccc34)cc2)CC1 [Compound 82, 1-N′-(4-Fluoro-2,6-dimethylphenyl)-1-N-[4-[7-(1-methylpyrazol-4-yl)quinolin-4-yl]oxyphenyl]cyclopropane-1,1-dicarboxamide] | 100 to 300 nM | 10 to 100 nM
11 | O=C(Nc1ccc(F)cc1)C1(C(=O)Nc2ccc(Oc3ccnc4cc(-c5cnc6[nH]ncc6c5)ccc34)cc2)CC1 [Compound 39, 1-N′-(4-Fluorophenyl)-1-N-[4-[7-(1H-pyrazolo[3,4-b]pyridin-5-yl)quinolin-4-yl]oxyphenyl]cyclopropane-1,1-dicarboxamide] | 10 to 100 nM | 10 to 100 nM
